Measured values as given in patent US20140243415A1, “COMPOUNDS INHIBITING GALECTIN-1 EXPRESSION, CANCER CELL PROLIFERATION, INVASION, AND TUMORIGENESIS” (ONCOETHIX SA, priority 2011, published 2014).

B1: semaphorin-3A: Recombinant semaphorin-3A purchased from R&D Systems (protein, UniProt Q14563 21-771, looked up)
Semaphorin-3A: NYQNGKNNVPRLKLSYKEMLESNNVITFNGLANSSSYHTFLLDEERSRLYVGAKDHIFSFDLVNIKDFQKIVWPVSYTRRDECKWAGKDILKECANFIKVLKAYNQTHLYACGTGAFHPICTYIEIGHHPEDNIFKLENSHFENGRGKSPYDPKLLTASLLIDGELYSGTAADFMGRDFAIFRTLGHHHPIRTEQHDSRWLNDPKFISAHLISESDNPEDDKVYFFFRENAIDGEHSGKATHARIGQICKNDFGGHRSLVNKWTTFLKARLICSVPGPNGIDTHFDELQDVFLMNFKDPKNPVVYGVFTTSSNIFKGSAVCMYSMSDVRRVFLGPYAHRDGPNYQWVPYQGRVPYPRPGTCPSKTFGGFDSTKDLPDDVITFARSHPAMYNPVFPMNNRPIVIKTDVNYQFTQIVVDRVDAEDGQYDVMFIGTDVGTVLKVVSIPKETWYDLEEVLLEEMTVFREPTAISAMELSTKQQQLYIGSTAGVAQLPLHRCDIYGKACAECCLARDPYCAWDGSACSRYFPTAKRRTRRQDIRNGDPLTHCSDLHHDNHHGHSPEERIIYGVENSSTFLECSPKSQRALVYWQFQRRNEERKEEIRVDDHIIRTDQGLLLRSLQQKDSGNYLCHAVEHGFIQTLLKVTLEVIDTEHLEELLHKDDDGDGSKTKEMSNSMTPSQKVWYRDFMQLINHPNLNTMDEFCEQVWKRDRKQRRQRPGHTPGNSNKWKHLQENKKGRNRRTHEFERAPRSV

Key:
SQ20B cells [1] = assay: Matrigel invasion assay; format: cell-based, human; conditions: for invasion of SQ20B cells, agent alone: 48 h, 1 g/ml galectin-1, 1 μg/ml semaphorin-3A, 10 μM UO126, 3 μM OTX-008
Description: (§1) FIG. 5. Modulation of the galectin-1/semaphorin-3A/neuropilin system in SQ20B cells. A—Effects of galectin-1 (Gall), semaphorin-3A (Sema3A), lactose, with or without four different concentrations of OTX-008 on SQ20B growth at day 6. Embedded figure: Proliferation assay of SQ20B and SQ-shGAL1. B—In vitro matrigel invasion assay of SQ20B exposed to […] galectin-1, 1 μg/ml semaphorin-3A, 200 ng/ml lactose or 10 μM UO126 with or without 3 μM OTX-008. Embedded figure: In vitro matrigel invasion assay of SQ20B and SQ-shGAL1. Invasion was quantified after 48 h by counting the average number of invaded cells.
8 μm membranes were coated with Matrigel (50 μg). The inserts were placed within a 24-well chamber containing 0.6 ml of RPMI 1640 medium with 20% fetal bovine serum as chemoattractant. 10^5 cells were seeded into the inserts suspended in 0.3 ml of serum-free RPMI. After incubation for 48 h at 37° C., the upper surface of the filter was scraped to remove non-invasive cells. Invasive cells were fixed and stained with a Diff Quik detection Kit (Dade Behring, Paris, France). For quantification, the average number of invading cells per field was assessed by counting 9 random fields under a light microscope (400×).
(§2) Galectin-1 may form extracellular lattices counteracting the inhibitory properties of semaphorin-3A on neuropilin-1, eventually leading to the modulation of the vascular endothelial growth factor (VEGFR) and platelet derived growth factor (PDGFR) receptors, fibronectin, and laminin activity SQ20B cells expressed significant mRNA and protein levels of semaphorin-3A and neuropilin-1, PDGFRa&(, VEGF A-D, and VEGFR1-3 (Supplementary FIG. 2A). Thus, SQ20B cells were selected to evaluate the effects of OTX-008 on galectin-1/semaphorin-3A interactions. No difference between SQ20B cells growing in plastic or fibronectin- and laminin-coated plates. […] Galectin-1 and semaphorin-3A induced invasion was inhibited by OTX-008 mimicking the effects of lactose in this model.

cdc2 (tyrosine 15) = assay: Western blot of phosphorylated cdc2 in SQ20B; format: cell-based, human; conditions: pretreated 2 h with UO126 then OTX-008 72 hours
Description: Cells were lysed in buffer containing 50 mM HEPES (pH 7.6), 150 mM NaCl, 1% Triton X-100, 2 mM sodium vanadate, 100 mM NaF, and 0.4 mg/ml phenylmethylsulfonyl fluoride. Equal amounts of protein (30 μg/lane) were subjected to SDS-PAGE and transferred to nitrocellulose membranes. Membranes were blocked with 5% milk in 0.05% Tween 20/phosphate-buffered saline and then incubated with the primary antibody overnight. Membranes were then washed and incubated with the secondary antibody conjugated to horseradish peroxidase. Bands were visualized by using the enhanced chemiluminescence Western blotting detection system. Densitometric analysis was performed under conditions that yielded a linear response. The following antibodies were used: anti-p-cdc2 (tyr15), anti-p-wee1 (ser642), anti-p-p44/42 MAPK (thr202/tyr204), anti-p44/42, anti-p-AKT (ser473), anti-AKT, anti-p-S6 (ser235/236) (Cell Signaling, Saint Quentin Yvelines, France), anti-p-PKCα (ser657) (BD Biosciences, Le-Pont-de-Claix, France) and anti-galectin-1 (Abcam, Cambridge, Mass., USA). All antibodies were used at a 1:1000 dilution.
To study the mechanism of OTX-008-induced inhibition of cell proliferation, the effect of OTX-008 on cell cycle in SQ20B cells was examined (FIG. 5B). […] Activation of cdc2 (cdk1) by de-phosphorylation of tyrosine 15 is required for G2/M transition. […]

SQ20B cells [2] = assay: In vitro growth inhibition assay; format: cell-based, human; conditions: growth at day 6
Description: as §1
For proliferation assay, cells were seeded in 96-well tissue culture plates at a density of 1.5×10^3 cells/well. MTT assay was conducted daily to determine the number of viable cells in untreated control and treated group. Growth inhibition curves were plotted as a percentage of cells for each experimental condition.
as §2

[3] = test system: human ovarian carcinoma MA148 xenografts; conditions: cited from earlier work
B16 melanoma = conditions: syngeneic mouse B16 melanoma model; cited from earlier work
[4] = test system: panel of human cancer cell lines; assay: MTT cell cytotoxicity assay, cell line panel; format: cell-based; conditions: cultured cancer cells
Description: Cell survival was determined using the MTT assay (3-[4,5-dimethylthiazol-2-yl]-2,5-diphenyltetrazolium bromide; Sigma, Saint-Quentin Fallavier, France). The conversion of yellow water-soluble tetrazolium MTT into purple insoluble formazan is catalyzed by mitochondrial dehydrogenases and used to estimate the number of viable cells. In brief, cells were seeded in 96-well tissue culture plates at a density of 2×10^3 cells/well. After 72 h drug exposure and 48 h wash-out, cells were incubated with 0.4 mg/ml MTT for 4 hours at 37° C. After incubation, the supernatant was discarded, insoluble formazan precipitates were dissolved in 0.1 ml of DMSO and the absorbance was measured at 560 nm by use of a microplate reader (Thermo, France). […] IC50's were determined as the halves of maximal inhibitory drug concentration for each cell line.
The antiproliferative effects of OTX-008 and anginex were assessed using MTT assay in a panel of human cancer cell lines of human origins expressing various levels of Lgals-1 mRNA and galectin-1 protein expressions (Supplementary Table 1). […] No correlation between mRNA expressions of galectin-2, galectin-3, and galectin-8 as well as semaphorin-3A, semaphorin-3B, neuropilin-1, VEGFR1-3, VEGFA-D, and PDGFRa&P3 and sensitivity to OTX-008 were detected in the panel.

galectin-1 = biological target: T1, galectin-1 (Homo sapiens, UniProt P09382); assay: Western blot of galectin-1 in SQ20B cells; format: cell-based; conditions: Bortezomib 10 nM with 3 μM OTX-008, 48 h
T1 construct: Western Blot of galectin-1 on SQ20B cells treated with 3 μM OTX-008 for 24 h, 48 h and 72 h; endogenous in cells; host or cells: SQ20B (ATCC)
Description: FIG. 3. Effects of OTX-008 on galectin-1 expression and localization. A—Western Blot of galectin-1 on SQ20B cells treated with 3 μM OTX-008 for 24 h, 48 h and 72 h. B and C—Immunofluorescence of galectin-1 on SQ20B cells treated with 3 μM OTX-008 for 24 and 48 h. B—OTX-008 treatment decreases galectin-1 immunostaining in SQ20B cells. C—Galectin-1 translocates into the nucleus after OTX-008 exposure. D—Western Blot of p-AKTser473, AKT, p-S6, p-ERK1/2, ERK and p-PKCα in SQ20B cells treated with 3 μM OTX-008 for 10 min, 1 h, 2 h, 5 h and 24 h.
FIG. 4. OTX-008-induced galectin-1 oxydation and degradation by the proteosome system A—Western Blot of galectin-1 on SQ20B cells treated 48 h with 10 μM N-acetylcysteine (NAC), 55 μM β-mercaptoethanol (βME), 1 mM Tempol and 10 μM co-enzyme Q10 (Q10) with or without 3 μM OTX-008. B—Western Blot of galectin-1 on SQ20B cells treated 48 h with 3 μM OTX-008, pretreated 2 h with proteasome inhibitor Bortezomib (10 nM) and then treated 48 h with 3 μM OTX-008 (BTZ—OTX-008) or treated 48 h with 10 nM Bortezomib+3 μM OTX-008 (BTZ+OTX-008).
Cells were lysed in buffer containing 50 mM HEPES (pH 7.6), 150 mM NaCl, 1% Triton X-100, 2 mM sodium vanadate, 100 mM NaF, and 0.4 mg/ml phenylmethylsulfonyl fluoride. Equal amounts of protein (30 μg/lane) were subjected to SDS-PAGE and transferred to nitrocellulose membranes. […]

T1 sequence (P09382 whole entry): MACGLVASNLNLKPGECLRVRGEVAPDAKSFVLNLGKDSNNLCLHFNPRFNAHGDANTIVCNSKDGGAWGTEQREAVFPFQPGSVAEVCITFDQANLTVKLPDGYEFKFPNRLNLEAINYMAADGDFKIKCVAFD

Row | Molecule | invasion of SQ20B cells, agent alone (SQ20B cells [1]) | SQ20B cell proliferation, exogenous agent alone (SQ20B cells [2]) | further results
1 | N#CC(=C(/N)Sc1ccccc1N)/C(C#N)=C(/N)Sc1ccccc1N [UO126, reference compound] | neither impact cellular invasion alone |  | OTX-008-mediated cdc2 phosphorylation after UO126 pretreatment (cdc2 (tyrosine 15)): inhibited the increase of cdc2 phosphorylation
2 | OC[C@H]1O[C@@H](O[C@H]2[C@H](O)[C@@H](O)C(O)O[C@@H]2CO)[C@H](O)[C@@H](O)[C@H]1O (stereo partly drawn) [lactose, reference compound] |  | significant inhibition of cellular proliferation | invasion, lactose combined with OTX-008 (SQ20B cells [1]; SQ20B, 200 ng/ml lactose with 3 μM OTX-008): prevents the inhibition of invasion induced by OTX-008
3 | anginex |  |  | antitumor activity [3]: antitumor activity; antitumor activity (B16 melanoma): antitumor activity; antiproliferative effects (MTT) [4]: limited effects
4 | galectin-1: Recombinant galectin-1 purchased from R&D Systems | enhance invasion | had not effects | 
5 | CC(C)C[C@H](NC(=O)[C@H](Cc1ccccc1)NC(=O)c1cnccn1)B(O)O [bortezomib, reference compound] |  |  | effect of proteasome inhibition on OTX-008-induced galectin-1 decrease (galectin-1): counteracts the inhibitory effects of OTX-008 on galectin-1 expression
6 | B1 | enhance invasion | concentration-dependent inhibition of cellular proliferation | 
